Assay results reported in the supplement of paper PMC10307832.

Tests used:
Experiment in all cases: relative viability (nuclei count vs DMSO), 5 days (fraction); higher = more cells survive
[1] = tested on: NCI-H2009
How it was run: (§1)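 Lung cancer cell lines were pin-tool dosed in 1536-well plates on the day after seeding, with either a lone drug or a fixed anchor-drug dose plus five library-drug doses (not always all listed) in √10 steps. Nuclei were counted on 4× images after 5 days. Relative viability is the ratio of treated-well to vehicle-well nuclei counts, with each value a median of duplicate plates.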

[2] = tested on: LXF-289
How it was run: as §1

[3] = tested on: NCI-H2126
How it was run: as §1

[4] = tested on: COR-L 105
How it was run: as §1

[5] = tested on: PC-3 [JPC-3]
How it was run: as §1

[6] = tested on: HARA
How it was run: as §1

[7] = tested on: COR-L23
How it was run: as §1

[8] = tested on: HOP-62
How it was run: as §1

[9] = tested on: HCC-366
How it was run: as §1

[10] = tested on: HCC-827
How it was run: as §1

[11] = tested on: SK-MES-1
How it was run: as §1

[12] = tested on: PC-14
How it was run: as §1

[13] = tested on: NCI-H2087
How it was run: as §1

[14] = tested on: HCC-15
How it was run: as §1

[15] = tested on: LU99A
How it was run: as §1

[16] = tested on: HCC-44
How it was run: as §1

[17] = tested on: CAL-12T
How it was run: as §1

[18] = tested on: LC-2-ad
How it was run: as §1

[19] = tested on: NCI-H1993
How it was run: as §1

[20] = tested on: NCI-H2170
How it was run: as §1

[21] = tested on: LCLC-97TM1
How it was run: as §1

**Q.** For `COCC1(CO)C(=O)C2CCN1CC2` (configuration not stated) [PRIMA-1MET] + C[C@@H](Oc1cc(-c2cnn(C3CCNCC3)c2)cnc1N)c1c(Cl)ccc(F)c1Cl [Crizotinib] (partner 1 µM), which relative viability ([1]; first compound 0.2 µM) is on record?
**A.** 0.99

**Q.** What about the relative viability ([1]; first compound 0.6325 µM) of the same compound?
**A.** 0.889

**Q.** What about the relative viability ([1]; first compound 2 µM) of the same compound?
**A.** 1.09

**Q.** What about the relative viability ([1]; first compound 6.325 µM) of the same compound?
**A.** 1.05

**Q.** And the relative viability ([1]; first compound 20 µM)?
**A.** 0.295

**Q.** What about the relative viability ([2]; first compound 0.2 µM) of the same compound?
**A.** 0.81

**Q.** And the relative viability ([2]; first compound 0.6325 µM)?
**A.** 0.869

**Q.** And the relative viability ([2]; first compound 2 µM)?
**A.** 0.871

**Q.** What about the relative viability ([2]; first compound 6.325 µM) of the same compound?
**A.** 0.815

**Q.** And the relative viability ([2]; first compound 20 µM)?
**A.** 0.767

**Q.** What about the relative viability ([3]; first compound 0.2 µM) of the same compound?
**A.** 1.08

**Q.** What about the relative viability ([3]; first compound 0.6325 µM) of the same compound?
**A.** 1.02

**Q.** And the relative viability ([3]; first compound 2 µM)?
**A.** 0.957

**Q.** What about the relative viability ([3]; first compound 6.325 µM) of the same compound?
**A.** 1.04

**Q.** And the relative viability ([3]; first compound 20 µM)?
**A.** 1.04

**Q.** And the relative viability ([4]; first compound 0.2 µM)?
**A.** 0.918

**Q.** And the relative viability ([4]; first compound 0.6325 µM)?
**A.** 0.664

**Q.** What about the relative viability ([4]; first compound 2 µM) of the same compound?
**A.** 0.74

**Q.** And the relative viability ([4]; first compound 6.325 µM)?
**A.** 0.782

**Q.** And the relative viability ([4]; first compound 20 µM)?
**A.** 0.254

**Q.** And the relative viability ([5]; first compound 0.2 µM)?
**A.** 0.995

**Q.** What about the relative viability ([5]; first compound 0.6325 µM) of the same compound?
**A.** 0.911

**Q.** And the relative viability ([5]; first compound 2 µM)?
**A.** 0.966

**Q.** What about the relative viability ([5]; first compound 6.325 µM) of the same compound?
**A.** 1.07

**Q.** And the relative viability ([5]; first compound 20 µM)?
**A.** 0.951

**Q.** What about the relative viability ([6]; first compound 0.2 µM) of the same compound?
**A.** 1.17

**Q.** What about the relative viability ([6]; first compound 0.6325 µM) of the same compound?
**A.** 1.04

**Q.** What about the relative viability ([6]; first compound 6.325 µM) of the same compound?
**A.** 0.987

**Q.** And the relative viability ([6]; first compound 20 µM)?
**A.** 0.99

**Q.** What about the relative viability ([7]; first compound 0.2 µM) of the same compound?
**A.** 0.704

**Q.** What about the relative viability ([7]; first compound 0.6325 µM) of the same compound?
**A.** 0.612

**Q.** And the relative viability ([7]; first compound 2 µM)?
**A.** 0.61

**Q.** And the relative viability ([7]; first compound 6.325 µM)?
**A.** 0.565

**Q.** And the relative viability ([7]; first compound 20 µM)?
**A.** 0.0228

**Q.** What about the relative viability ([8]; first compound 0.2 µM) of the same compound?
**A.** 0.999

**Q.** What about the relative viability ([8]; first compound 0.6325 µM) of the same compound?
**A.** 0.76

**Q.** And the relative viability ([8]; first compound 2 µM)?
**A.** 0.666

**Q.** What about the relative viability ([8]; first compound 6.325 µM) of the same compound?
**A.** 0.969

**Q.** And the relative viability ([8]; first compound 20 µM)?
**A.** 0.768

**Q.** What about the relative viability ([9]; first compound 0.2 µM) of the same compound?
**A.** 0.702

**Q.** What about the relative viability ([9]; first compound 0.6325 µM) of the same compound?
**A.** 0.515

**Q.** What about the relative viability ([9]; first compound 6.325 µM) of the same compound?
**A.** 0.506

**Q.** What about the relative viability ([9]; first compound 20 µM) of the same compound?
**A.** 0.009

**Q.** And the relative viability ([10]; first compound 0.2 µM)?
**A.** 1.06

**Q.** What about the relative viability ([10]; first compound 0.6325 µM) of the same compound?
**A.** 0.813

**Q.** And the relative viability ([10]; first compound 2 µM)?
**A.** 0.796

**Q.** And the relative viability ([10]; first compound 6.325 µM)?
**A.** 0.978

**Q.** And the relative viability ([10]; first compound 20 µM)?
**A.** 0.896

**Q.** And the relative viability ([11]; first compound 0.2 µM)?
**A.** 1.09

**Q.** And the relative viability ([11]; first compound 0.6325 µM)?
**A.** 0.968

**Q.** And the relative viability ([11]; first compound 2 µM)?
**A.** 1.03

**Q.** What about the relative viability ([11]; first compound 6.325 µM) of the same compound?
**A.** 0.943

**Q.** What about the relative viability ([11]; first compound 20 µM) of the same compound?
**A.** 0.997

**Q.** And the relative viability ([12]; first compound 0.2 µM)?
**A.** 1.06

**Q.** And the relative viability ([12]; first compound 0.6325 µM)?
**A.** 0.852

**Q.** And the relative viability ([12]; first compound 2 µM)?
**A.** 0.853

**Q.** And the relative viability ([12]; first compound 6.325 µM)?
**A.** 0.975

**Q.** What about the relative viability ([12]; first compound 20 µM) of the same compound?
**A.** 1

**Q.** And the relative viability ([13]; first compound 0.2 µM)?
**A.** 0.949

**Q.** What about the relative viability ([13]; first compound 0.6325 µM) of the same compound?
**A.** 0.751

**Q.** What about the relative viability ([13]; first compound 2 µM) of the same compound?
**A.** 0.474

**Q.** And the relative viability ([13]; first compound 6.325 µM)?
**A.** 0.794

**Q.** And the relative viability ([13]; first compound 20 µM)?
**A.** 0.805

**Q.** What about the relative viability ([14]; first compound 0.2 µM) of the same compound?
**A.** 0.925

**Q.** And the relative viability ([14]; first compound 0.6325 µM)?
**A.** 0.786

**Q.** And the relative viability ([14]; first compound 2 µM)?
**A.** 0.802

**Q.** And the relative viability ([14]; first compound 6.325 µM)?
**A.** 0.807

**Q.** What about the relative viability ([14]; first compound 20 µM) of the same compound?
**A.** 0.706

**Q.** And the relative viability ([15]; first compound 0.2 µM)?
**A.** 0.564

**Q.** And the relative viability ([15]; first compound 0.6325 µM)?
**A.** 0.475

**Q.** What about the relative viability ([15]; first compound 2 µM) of the same compound?
**A.** 0.576

**Q.** What about the relative viability ([15]; first compound 6.325 µM) of the same compound?
**A.** 0.501

**Q.** What about the relative viability ([15]; first compound 20 µM) of the same compound?
**A.** 0.0737

**Q.** And the relative viability ([16]; first compound 0.2 µM)?
**A.** 0.83

**Q.** And the relative viability ([16]; first compound 0.6325 µM)?
**A.** 0.67

**Q.** And the relative viability ([16]; first compound 2 µM)?
**A.** 0.867

**Q.** And the relative viability ([16]; first compound 6.325 µM)?
**A.** 0.86

**Q.** And the relative viability ([16]; first compound 20 µM)?
**A.** 0.807

**Q.** And the relative viability ([17]; first compound 0.2 µM)?
**A.** 0.788

**Q.** What about the relative viability ([17]; first compound 0.6325 µM) of the same compound?
**A.** 0.834

**Q.** And the relative viability ([17]; first compound 2 µM)?
**A.** 0.687

**Q.** What about the relative viability ([17]; first compound 6.325 µM) of the same compound?
**A.** 0.661

**Q.** What about the relative viability ([17]; first compound 20 µM) of the same compound?
**A.** 0.283

**Q.** What about the relative viability ([18]; first compound 0.2 µM) of the same compound?
**A.** 0.484

**Q.** What about the relative viability ([18]; first compound 0.6325 µM) of the same compound?
**A.** 0.434

**Q.** What about the relative viability ([18]; first compound 2 µM) of the same compound?
**A.** 0.398

**Q.** What about the relative viability ([18]; first compound 6.325 µM) of the same compound?
**A.** 0.39

**Q.** And the relative viability ([18]; first compound 20 µM)?
**A.** 0.382

**Q.** What about the relative viability ([19]; first compound 0.2 µM) of the same compound?
**A.** 1.14

**Q.** And the relative viability ([19]; first compound 0.6325 µM)?
**A.** 0.892

**Q.** And the relative viability ([19]; first compound 2 µM)?
**A.** 0.738

**Q.** And the relative viability ([19]; first compound 6.325 µM)?
**A.** 0.883

**Q.** And the relative viability ([19]; first compound 20 µM)?
**A.** 0.822

**Q.** And the relative viability ([20]; first compound 0.2 µM)?
**A.** 1.38

**Q.** What about the relative viability ([20]; first compound 0.6325 µM) of the same compound?
**A.** 1.13

**Q.** What about the relative viability ([20]; first compound 2 µM) of the same compound?
**A.** 1.02

**Q.** And the relative viability ([20]; first compound 6.325 µM)?
**A.** 1.26

**Q.** What about the relative viability ([20]; first compound 20 µM) of the same compound?
**A.** 1.21

**Q.** And the relative viability ([21]; first compound 0.2 µM)?
**A.** 0.494

**Q.** And the relative viability ([21]; first compound 2 µM)?
**A.** 0.378

**Q.** What about the relative viability ([21]; first compound 6.325 µM) of the same compound?
**A.** 0.234

**Q.** What about the relative viability ([21]; first compound 20 µM) of the same compound?
**A.** 0.0997
